{
  "source": "patent US9528143B2",
  "about": "“Tracer reagents that enhance reaction-product analysis” (Sigma-Aldrich Co. LLC, priority 1999, dated 2016)",
  "key": {"[1]": {"system": "restriction enzymes", "test": "Restriction digest of NdeI-cut pUC19 with and without dye, agarose gel", "format": "biochemical", "conditions": "crude dye, all enzymes tested with the exception of KpnI, FIG. 17", "procedure": "The effectiveness of restriction enzymes in cutting target DNA when a dye is present in the reaction mixture was evaluated. A variety of restriction enzymes were assayed for the detrimental effect of adding Amaranth (No. 31, Table 2) to a restriction digest as assayed by agarose gel electrophoresis. NdeI-cut pUC19 plasmid was prepared. This linearized plasmid was then digested with one of several restriction enzymes which normally cut pUC19 at a polylinker site. Thus, each enzyme would be expected to yield a product of similar sizes (ranging from 212 to 263 bp). The restriction enzyme digests were performed in the presence, or absence, of Amaranth dye, and at various concentrations of the enzyme. Column 1 (the leftmost column) contains 100 bp molecular weight ladders. Columns 2-4 contains cleavage products from sequential 5-fold dilutions of the restriction enzymes in the presence of dye. Columns 5-7 are as columns 2-4 but without dye. Columns 2 and 5 contained the restriction enzyme at 1/10th the suppliers concentration (i.e. the enzyme was considered a 10× concentration). The buffers used for the digests were as recommended by the supplier. The enzymes used are listed along the right side of the gel. The relative susceptibility of the enzyme to the dyes' presence is reported next to the enzyme. The sizes of the small bands in the electrophoresis runs range from 212 to 263 bp. […]"}, "[2]": {"target": "T1, Taq DNA polymerase (Thermus aquaticus, UniProt P19821)", "T1 construct": "purchased Sigma Chemical Co., St. Louis, Mo", "T1 sequence (P19821 whole entry)": "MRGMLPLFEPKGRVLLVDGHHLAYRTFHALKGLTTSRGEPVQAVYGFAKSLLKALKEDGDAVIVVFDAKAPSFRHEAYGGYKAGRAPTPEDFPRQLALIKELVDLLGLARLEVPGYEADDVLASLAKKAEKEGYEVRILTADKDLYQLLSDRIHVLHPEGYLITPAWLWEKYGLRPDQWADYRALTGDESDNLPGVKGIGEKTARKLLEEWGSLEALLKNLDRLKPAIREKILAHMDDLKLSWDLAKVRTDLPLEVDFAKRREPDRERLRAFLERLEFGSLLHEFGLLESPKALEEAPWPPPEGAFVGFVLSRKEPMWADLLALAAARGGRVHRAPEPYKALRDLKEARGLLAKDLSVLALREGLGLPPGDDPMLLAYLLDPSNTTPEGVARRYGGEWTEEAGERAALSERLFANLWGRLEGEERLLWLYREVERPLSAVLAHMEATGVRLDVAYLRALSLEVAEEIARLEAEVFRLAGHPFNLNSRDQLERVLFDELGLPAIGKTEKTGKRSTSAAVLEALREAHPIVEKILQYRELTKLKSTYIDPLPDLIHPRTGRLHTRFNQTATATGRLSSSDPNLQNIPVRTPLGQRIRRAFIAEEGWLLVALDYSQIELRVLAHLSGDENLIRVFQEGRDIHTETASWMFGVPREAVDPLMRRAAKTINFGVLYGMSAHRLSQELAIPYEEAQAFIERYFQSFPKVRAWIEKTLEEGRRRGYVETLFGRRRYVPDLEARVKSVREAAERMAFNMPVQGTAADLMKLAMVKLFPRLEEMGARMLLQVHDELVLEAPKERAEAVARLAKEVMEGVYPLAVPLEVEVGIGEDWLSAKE", "test": "PCR yield (TCA precipitation) versus dye concentration, purity and counterion", "format": "biochemical", "conditions": "for PCR toxicity by counterion: FIGS. 12A and 12B", "procedure": "The dyes that survived these preceding tests were included in a PCR toxicity study. The dyes were added to PCR reactions at concentrations considered adequate for product performance. Enough of a 2× PCR master mix consisting of Taq DNA polymerase, 0.1 u/μl (Sigma Chemical Co., St. Louis, Mo.), PCR buffer (2×) (Sigma), dNTP's (200 μM each) (Sigma), α^32PdCTP (Amersham USA, Piscataway, N.J.), target DNA (lambda, 2 ng/μl) (Sigma) and primers (Perkin-Elmer 500 bp control, 2 μM) (Perkin-Elmer, Norwalk, Conn.) was prepared to accommodate all 11 remaining dyes plus three no dye controls. Ten μl of the 2× master mix was dispensed into reaction tubes followed by addition of 10 μl of aqueous darkly colored dye solutions or water (controls). The PCR cycling protocol was 20 cycles of 94/55/72° C. at one minute each. 20 μl of quench solution ([…] calf thymus DNA, 20 mM EDTA) was added followed by precipitation with 40 μl 40% trichloroacetic acid (TCA)/4% sodium pyrophosphate (NaPPi). The reactions were filtered on glass fiber filters, washed with 5% TCA/2% NaPPi and counted by scintillation methods. This quench/precipitation procedure will henceforth be referred to as “TCA precipitation”. […] The dyes that inhibited PCR were dropped from consideration (FIG. 6, PCR Tox, Table 2, those marked under “PCR”). […] Per cycle yield was calculated assuming the overall yield was the per cycle yield raised to the 20th power (FIG. 7). In FIG. 7, T1, T2, and T3 represent Taq controls (no dye) as in block and precipitation, numerals are dye number. Per cycle yield is calculated assuming […] where y is the 20 cycle yield (measured) and y1 is the per cycle yield. Table 3 summarizes the results as graphically depicted in FIG. 7 for each of dyes 23, 24, 25, 26, 31, and 39.\nOn the basis of performance to this point, the remaining dyes were considered substantially equivalent as tracer candidates. Acid violet 5 (number 39, Table 2) was chosen as a possible finalist candidate. Using this dye in a reaction mix at an absorbance of 10 (at its absorbance maximum of 527 nm) a PCR reaction was performed. […] This was considered unacceptable, but was overcome by further development efforts.\nIn general, the available dyes, as well as those investigated, are derived from unrelated applications. That is, many are used as fabric dyes, food colorings, biological stains etc. As such, they are available in various states of purity. In the case of the finalists, they all had purities of 80% or less, as determined by the product labels. In further experiments, PCR yields (determined by TCA precipitation) in reactions containing various concentrations of acid violet 5 (determined by A527) were compared before and after purification of the crude dye by reverse phase desalting. […] Since reversed phase desalting is not an attractive method for large scale dye purification, acid precipitation followed by ammonium hydroxide dissolution/evaporation to produce the ammonium dye was investigated. This procedure should result in an essentially salt free product. These procedures (reversed phase desalting and acid/ammonium hydroxide) were carried out for acid red 1 (No. 26, Table 2) and acid violet 5 (No. 39). […] The dyes were converted to their magnesium salts to further characterize the effect of counterion identity. This was accomplished by addition of magnesium chloride (excess) to a solution of the crude dye. The magnesium dye that immediately precipitated was recrystallized from water. […] In analogy with the magnesium salts, the calcium and zinc salts of acid red 1 were prepared to investigate whether the effect was divalent vs. monovalent cation or cation identity specific."}, "[3]": {"target": "Taq polymerase (Thermus aquaticus, UniProt P19821)", "sequence (P19821 whole entry)": "as above", "conditions": "Hoppe et al., BioTechniques 12:679-680 (1992); cited from earlier work"}},
  "data": [
    {"compound": "O=S(=O)([O-])c1ccc2c(N=Nc3ccc(S(=O)(=O)[O-])c4ccccc34)c(O)c(S(=O)(=O)[O-])cc2c1.[Na+].[Na+].[Na+]", "note": "[Dye 31, Amaranth]", "values": [
      {"measurement": "effect of dye on restriction enzyme digests", "setting": "[1]", "result": "relatively inert"}
    ]},
    {"compound": "CC(=O)Nc1ccc(N=Nc2c(S(=O)(=O)[O-])cc3cc(S(=O)(=O)[O-])cc(NS(=O)(=O)c4ccc(C)cc4)c3c2O)cc1.[Na+].[Na+]", "note": "[Dye 39, Acid Violet 5]", "values": [
      {"measurement": "loss in PCR product yield", "setting": "[2]; dye in reaction mix at absorbance of 10 at 527 nm, relative to same reaction without dye, FIG. 10", "result": "≥ 50", "unit": "%"}
    ]},
    {"compound": "CC(=O)Nc1cc(S(=O)(=O)[O-])cc2cc(S(=O)(=O)[O-])c(N=Nc3ccccc3)c(O)c12.[Na+].[Na+]", "note": "[acid red 1 Mg salt, acid red 1]", "values": [
      {"measurement": "PCR toxicity of magnesium vs calcium and zinc salts", "setting": "[2]; FIG. 12C", "result": "least toxic"},
      {"measurement": "PCR toxicity by counterion", "setting": "[2]", "result": "much less toxic to PCR than either the sodium or ammonium salts"}
    ]},
    {"compound": "CC(=O)Nc1cc(S(=O)(=O)[O-])cc2cc(S(=O)(=O)[O-])c(N=Nc3ccccc3)c(O)c12.[Na+].[Na+]", "note": "[acid red 1 ammonium, acid red 1]", "values": [
      {"measurement": "PCR toxicity by counterion", "setting": "[2]", "result": "more PCR toxic than the sodium"}
    ]},
    {"compound": "Cc1cc(C2(c3ccc(O)c(C)c3)OS(=O)(=O)c3ccccc32)ccc1O", "note": "[cresol red]", "values": [
      {"measurement": "compatibility with Taq", "setting": "[3]", "result": "compatible with Taq"}
    ]},
    {"compound": "OC[C@H]1O[C@@](CO)(O[C@H]2O[C@H](CO)[C@@H](O)[C@H](O)[C@H]2O)[C@@H](O)[C@@H]1O", "note": "[sucrose]", "values": [
      {"measurement": "compatibility with Taq", "setting": "[3]", "result": "compatible with Taq"}
    ]},
    {"compound": "O=C([O-])C1=NN(c2ccc(S(=O)(=O)[O-])cc2)C(=O)C1N=Nc1ccc(S(=O)(=O)[O-])cc1.[Na+].[Na+].[Na+]", "note": "(centres unmarked) [tartrazine]", "values": [
      {"measurement": "compatibility with Taq", "setting": "[3]", "result": "compatible with Taq"}
    ]},
    {"compound": "acid violet 5 [acid violet 5 Mg salt]", "values": [
      {"measurement": "PCR toxicity by counterion", "setting": "[2]", "result": "much less toxic to PCR than either the sodium or ammonium salts"}
    ]},
    {"compound": "acid violet 5 [acid violet 5 ammonium]", "values": [
      {"measurement": "PCR toxicity by counterion", "setting": "[2]", "result": "more PCR toxic than the sodium"}
    ]},
    {"compound": "acid violet 5 [acid violet 5 desalted]", "values": [
      {"measurement": "susceptibility of PCR product yield to dye concentration", "setting": "[2]; desalted relative to crude compound, FIG. 11", "result": "much less susceptible to dye concentration"}
    ]}
  ]
}
